From US20230312643A1, “PEPTIDE DERIVATIVE WITH COLLAGENASE INHIBITORY ACTIVITY, AND USE THEREOF” (SUNMARINE BIOTECH, priority 2020, published 2023)

Key:
collagenase = experiment: Collagenase inhibitory activity (EnzChek Gelatinase/Collagenase Assay Kit, DQ collagen); assay type: biochemical
Procedure: (§1) Collagenase inhibitory activity was performed by purchasing EnzChek® Gelatinase/Collagenase Assay Kit (250-2000 Assays) reagent from Invitrogen. First, DQ collagen stock solution (1 mg/ml) was prepared by adding 1.0 ml of DDW to 1 mg DQ collagen vial. The 18 ml of DDW was added to 2 ml of 10× reaction buffer, so as to dilute reaction buffer. Then, a collagenase enzyme reagent was prepared, and diluted with reaction buffer to a final concentration of 0.2 U/ml as working solution. Three samples of 50 ? each were prepared in a 96-well plate. The 30 ? of reaction buffer was added to 20 ? of DQ collagen and sample blank, and 30 ? of working solution was added to a sample, which were then left in a light-blocked state at room temperature for about one to two hours, and then fluorescence intensity was measured at excitation wavelength 485 nm and emission wavelength 535 nm using ELISA plate reader (VICTOR X3™, PerkinElmer, US).
As a positive control, copper peptide (Comparative Example 12), which is a representative peptide widely used as a raw material for functional cosmetics, was prepared at the same concentration and used. Copper peptide has excellent skin regeneration ability and thus is used as a raw material to suppress skin aging by promoting wound healing, strengthening skin elasticity, and increasing subcutaneous fat layers.

gelatinase = experiment: Gelatinase inhibitory activity (EnzChek Gelatinase/Collagenase Assay Kit, DQ gelatin); assay type: biochemical
Procedure: Gelatinase is an enzyme which plays a major role in promoting skin aging by more finely degrading collagen fragments digested by MMP-1 with MMP-2, and wrinkle reduction activity was determined by measuring the inhibitory activity of the enzyme.
as §1, with “Gelatinase inhibitory” for “Collagenase inhibitory”, “DQ gelatin” for “DQ collagen”, “a gelatinase” for “a collagenase”, “and” for “and emission wavelength”

NC(=O)C[C@H](NC(=O)CNC(=O)[C@@H]1CCCN1)C(=O)O [PGN, Pro-Gly-Asn, reference compound]
Collagenase inhibitory activity (collagenase; 0.05 mg/ml): 1.6 ± 3.3% | Collagenase inhibitory activity (collagenase; 0.1 mg/ml): 4.7 ± 3.9% | Collagenase inhibitory activity (collagenase; 0.5 mg/ml): 11.2 ± 6.2% | Collagenase inhibitory activity (collagenase; 1 mg/ml): 13.1% | collagenase inhibitory activity IC50 (collagenase; FIGS. 5 and 6): 1577 µg/mL | Gelatinase inhibitory activity (gelatinase; 0.2 mg/ml): 1.5 ± 5.5% | Gelatinase inhibitory activity (gelatinase; 0.3 mg/ml): 9.8 ± 0.8% | Gelatinase inhibitory activity (gelatinase; 0.4 mg/ml): 63.1 ± 2.1% | Gelatinase inhibitory activity (gelatinase; 0.5 mg/ml): 80.5 ± 1.2%
